PubChem BioAssay AID179 (DTP/NCI, 2004)
Active and inactive are the calls of the source.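 Rule for the calls: active = compounds giving half or more protection of infected cells from virus-caused growth loss, again on retest; inactive = the rest.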 Where a SMILES comes first, the peptide text is derived from it. The star is where a group is joined. X9 = CC(=O)NC1C(N*)OC(CO)C(O)C1O

Tested on: CEM cells HIV-1 protection, formazan growth assay
Assay: NCI AIDS Antiviral Assay
Conditions: for IC50: measured here: growth of uninfected CEM cells
Outline: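 Protection of CEM cells against HIV-1 was scored from cell growth (soluble formazan) across five concentrations, with parallel uninfected cells. Lack of protection may reflect toxicity.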

SMILES: O=C1c2cccc3cccc(c23)C(=O)N1O
- EC50: > 100 µM
- IC50: 7.41 µM

SMILES: COc1ccc(NC(=O)/N=C2\CN(C(=O)c3c(F)cccc3F)C(=O)N2c2ccc(OC)cc2)cc1
- EC50: > 200 µM
- IC50: 129 µM

SMILES: [N-]=[N+]=CC(=O)OC1CCc2ccccc21 (stereo not given)
- EC50: > 200 µM
- IC50: > 200 µM

SMILES: Cc1ccc2c(c1)Nc1ccccc1C(=O)N2
- EC50: > 200 µM
- IC50: > 200 µM

SMILES: CC(=O)/C(=C/n1c(=S)sc2ccccc21)C(=O)Nc1ccc([N+](=O)[O-])cc1
- EC50: > 129 µM
- IC50: 95.5 µM

SMILES: CCOC(=O)C(=O)C(CCC(=O)c1ccc2ccccc2c1O)C(=O)OCC (stereo not given)
- EC50: > 468 µM
- IC50: 389 µM

SMILES: Cc1cc2c(C)nn(Cc3ccccc3)c2c(C(N)=O)c1C
- outcome: inactive

SMILES: O=C1CC(c2ccccc2)n2cccc21 (stereo not given)
- outcome: inactive

SMILES: COc1ccc(N=Cc2ccc(N(CCC#N)S(=O)(=O)c3ccccc3)cc2C)cc1
- EC50: > 219 µM
- IC50: 112 µM

SMILES: CCOC(=O)C(=Cn1ccc(=O)[nH]c1=S)C(=O)OCC
- EC50: > 200 µM
- IC50: > 200 µM

SMILES: CC(=O)Oc1cc(C)c(Cl)c2c(OC(C)=O)cc(C(C)=O)c(O)c12
- EC50: > 200 µM
- IC50: 49 µM

SMILES: Cc1cccc(NC(=O)CC(=O)N2N=C(N(CCC#N)c3ccccc3Cl)CC2c2ccccc2)c1 (stereo not given)
- EC50: > 186 µM
- IC50: > 186 µM

SMILES: C[C@@H]1CCC(=O)C(C(=O)CC2CC(=O)NC2=O)C1 (stereo not given in full)
- EC50: > 200 µM
- IC50: > 200 µM

SMILES: C=C[C@]1(C)CC(O)C2C(=C)C(=O)OC2[C@H]1C(=C)C=O (stereo not given in full)
- EC50: > 200 µM
- IC50: 3.31 µM

SMILES: COc1ccc(C2C(Cl)C(=O)N2NC(=O)c2ccc(NC(C)=O)cc2)cc1OC (stereo not given)
- EC50: > 200 µM
- IC50: > 200 µM

SMILES: COC1=CC(=O)C2C(C1=O)C(c1ccccc1)[C@H]2C (stereo not given in full)
- EC50: > 372 µM
- IC50: 22.9 µM

SMILES: COc1ccc(-c2coc3c4c(ccc3c2=O)OCO4)cc1OC
- outcome: inactive

SMILES: CCN(CC)CCC(=O)NC1c2ccccc2Oc2ccccc21
- EC50: > 398 µM
- IC50: 219 µM

SMILES: O=C(Cc1nc2ccccc2c(=O)n1-c1ccccc1Cl)c1ccncc1
- EC50: > 5.37 µM
- IC50: > 5.37 µM

SMILES: CCOC(=O)C1=C(NC)OCC1=O
- outcome: inactive

SMILES: CC(C)(C)C(=O)OCOP(=O)(O)OCC1CCC(N2C=CC(N)NC2=O)O1 (stereo not given)
- EC50: 0.0468 µM
- IC50: 16.2 µM

SMILES: C#CCOCn1cnc2c(=O)[nH]cnc21
- EC50: > 331 µM
- IC50: > 331 µM

SMILES: CC(=O)NC1C(OCc2ccccc2)OC(CO)C(O)C1OC(C)C(=O)NC(C)C(=O)NC(CCC(=O)NCCCNc1c2ccccc2nc2cccc([N+](=O)[O-])c12)C(N)=O (stereo not given)
- EC50: > 100 µM
- IC50: 1.15 µM

SMILES: CCC(C)C(NC(=O)CNC(=O)C(Cc1c[nH]cn1)NC(=O)C(NC(=O)C(CS)NC(=O)C(CCC(N)=O)NC(=O)C(NC(=O)C(NC(=O)C(CO)NC(=O)C(NC(=O)C(CC(=O)NC1OC(CO)C(O)C(O)C1NC(C)=O)NC(=O)C(NC(=O)C(CS)NC(=O)C1CCCN1C(=O)CNC(=O)C(NC(=O)CN)C(C)O)C(C)O)C(C)C)C(C)O)C(C)C)C(C)O)C(=O)NC(CCCNC(=N)N)C(N)=O (stereo not given) (H-GTGPCTD(X9)VSTVQCTHGIR-NH2; configuration not given here)
- EC50: > 50.1 µM
- IC50: > 50.1 µM

SMILES: C1CN2CCN3CCN4CCN1[P+]243
- outcome: inactive

SMILES: O[C@H]1C=CC[C@H]2C(F)(F)[C@](F)(Cl)[C@@]12Cl
- EC50: > 1000 µM
- IC50: 186 µM

SMILES: O=C(O)CNS(=O)(=O)c1ccc(NC(=O)c2ccc(F)cc2)cc1
- outcome: inactive

SMILES: O=C(c1ccco1)N(C(=S)N1CCN(c2ccccc2)CC1)c1ccccc1
- EC50: > 18.2 µM
- IC50: > 18.2 µM

SMILES: COc1cc2c(cc1OC)C(Cl)C(c1ccc(Br)cc1)=C2Cl (stereo not given)
- outcome: inactive

SMILES: CCCCC1SC2=NCCN2C1(O)c1ccc(Cl)cc1 (stereo not given)
- EC50: > 200 µM
- IC50: 102 µM

SMILES: CN1CCN(CC(=O)N2CCCn3c2nc2ccccc2c3=O)CC1
- EC50: > 200 µM
- IC50: > 200 µM

SMILES: Cc1c(N=O)cc(C(C)C)c(O)c1I
- EC50: > 200 µM
- IC50: 27.5 µM

SMILES: Cc1ccc(NC(=O)CC2C(=O)Nc3ccccc3S2(=O)=O)c(C)c1 (stereo not given)
- EC50: > 4.07 µM
- IC50: > 4.07 µM

SMILES: CC(=O)CC(c1ccccc1)c1c(O)c2ccccc2oc1=O (stereo not given)
- EC50: > 813 µM
- IC50: 372 µM

SMILES: NC(=O)c1cccc(C2OC(COP(=O)(O)O)C(O)C2O)c1 (stereo not given)
- EC50: > 661 µM
- IC50: 3.47 µM

SMILES: COC(=O)C1=C2c3ccccc3-c3ccccc3C2(O)C(C(=O)OC)C1=O (stereo not given)
- EC50: > 1.45 µM
- IC50: > 1.45 µM

SMILES: CN(C)C1C(=O)C(C(=O)NCN2CCCC2)=C(O)C2(O)C(=O)C3=C(O)c4c(O)cccc4C(C)(O)C3CC12 (stereo not given)
- EC50: > 63.1 µM
- IC50: 53.7 µM

SMILES: CC(=O)OCC1OC(n2c(C#N)cc(=O)[nH]c2=O)CC1OC(C)=O (stereo not given)
- EC50: > 200 µM
- IC50: 57.5 µM

SMILES: N#Cc1c(-c2ccc(Cl)cc2)c(-c2ccc(Cl)cc2)nn(CCOC(=O)CCC(=O)O)c1=O
- EC50: > 513 µM
- IC50: 0.468 µM

SMILES: O=[N+]([O-])c1ccc(-c2cn(-c3ccc(Cl)cc3)cn2)cc1
- EC50: > 100 µM
- IC50: > 100 µM

SMILES: COc1ccccc1NC(=S)N/N=C(/c1ccccc1)c1ccccn1
- EC50: > 0.2 µM
- IC50: 0.0813 µM

SMILES: C1=NN2C(c3ccccc3)=NOC2C2C(c3ccccc3)=NOC12 (stereo not given)
- EC50: > 200 µM
- IC50: > 200 µM

SMILES: COc1cc(/C=C/c2ccc(OC)c(OC)c2)cc(OC)c1
- outcome: inactive

SMILES: Fc1ccc(CN2COc3c(ccc4cccnc34)C2)cc1
- EC50: > 200 µM
- IC50: 34.7 µM
